Results from article PMC4105339 (Antiviral research, 2014).
Marks after values point to notes of the source that are not given here.

Legend:
[1] = test system: A/Mississippi/03/01 H1N1 wild type neuraminidase
[2] = test system: H5N1 clade 1 A/Chicken/Vietnam/08/2004 neuraminidase; conditions: 37°C
[3] = test system: H5N1 clade 2 A/Chicken/Bangli/BBVD-563/2007 neuraminidase; conditions: 37°C
[4] = test system: A/Fukui/45/04 H3N2 wild type neuraminidase
[5] = test system: human influenza A strains (neuraminidase)
[6] = target: B/Perth/211/01 wild type neuraminidase; conditions: cited from earlier work
[7] = test system: B/Perth/211/01 influenza B wild type neuraminidase
[8] = test system: wild type viruses (neuraminidase)
[9] = target: clade 1 H5N1 neuraminidase; conditions: cited from earlier work
[10] = target: clade 2 H5N1 neuraminidase; conditions: cited from earlier work
[11] = test system: H3N2 wild type neuraminidase; conditions: cited from earlier work

SMILES	Time (T½) for reaction rates to reach half the maximum rate of the uninhibited control [1]	Time (T½) for reaction rates to reach half the maximum rate of the uninhibited control [2]	Time (T½) for reaction rates to reach half the maximum rate of the uninhibited control [3]	Time (T½) for reaction rates to reach half the maximum rate of the uninhibited control [4]	T½ values [5]	IC50 [6]	Time (T½) for reaction rates to reach half the maximum rate of the uninhibited control [7]	T½ (range over viruses) [8]	IC50 [9]	increase in IC50 from 10 to 60 min after addition of substrate in the preincubation reaction [9]	IC50 [10]	increase in IC50 from 10 to 60 min after addition of substrate in the preincubation reaction [10]	changes in IC50 from 10 to 60 min in the preincubation reaction [11]
CCC(CC)[C@H](NC(C)=O)[C@@H]1[C@H](O)[C@@H](C(=O)O)C[C@H]1N=C(N)N [Peramivir, peramivir]	>240^* min	59.9 min	84.4 min	>4 h	> 4 h	2.8 nM	–	–	–	–	–	–	–
CC(=O)N[C@H]1[C@H]([C@H](O)[C@H](O)CO)OC(C(=O)O)=C[C@@H]1N=C(N)N [Zanamivir]	41.3 min	27.7^* min	72.8^* min	–	–	8.9 nM	24.6^* min	0.467 to 1.82 h	2.1 nM	4.5 fold	1.3 nM	2.2 fold	1.3 fold
